These results are taken from patent publication US6342368B1, “WD-40-derived peptides and uses thereof” (The Board of Trustees of the Leland Stanford Junior …, priority 1994, dated 2002).

Entries after “also recorded” stand apart in the source; their conditions may differ.

Assay [1] has as its system PKC binding to recombinant RACK1. Put plainly: Overlay / overlay-extraction assay: inhibition of PKC binding to recombinant RACK1 by peptides. Set-up: species or system rat. The note with it: 10 μM peptide preincubated with PKC. On the procedure: The variation in the overlay protocol consisted of incubating the putative binding peptides with a mixture of PKC isozymes for 15 minutes at room temperature before the mixture was used to contact the nitrocellulose strips containing immobilized RACK1.
Nitrocellulose strips containing immobilized RACK1, that had been contacted with a solution containing a mixture of PKC isozymes, were washed and the area corresponding to the 36 kDa (RACK1-containing) band was cut out. The pieces (containing PKC/RACK1 complexes) were incubated with sample buffer for 10 minutes at 80° C. The sample buffer and the nitrocellulose pieces were then placed in wells in the PAGE gel and subjected to SDS-PAGE to elute the bound proteins. The gel was blotted onto nitrocellulose and a Western blot analysis was carried out using the mixture of antibodies (specific for PKC α, β, γ, δ, ε and ζ isozymes) described in Example 1 part B. Bound antibodies were detected by ^125I-protein A.
Peptides derived from or homologous to WD-40 repeats of RACK1 were tested for their ability to inhibit PKC binding to recombinant RACK1. Binding of PKC to RACK1 was carried out using a variation of the overlay procedure described in Example 3 part B. In the experimental samples, peptides were incubated with a solution containing a mixture of rat brain PKC isozymes (˜10 nM each) for 15 minutes at room temperature.
Following completion of the modified overlay protocol, the samples were subjected to the overlay-extraction protocol detailed in part B, above.
The results in FIG. 3 show the binding of PKC to RACK1, carried out without (lane 1) or with (lanes 2-4) a preincubation of peptides with PKC. […] Peptide I caused an 81±6% inhibition of PKC binding to recombinant RACK1 as compared with binding in the absence of added peptide (n=3). Lanes 3 and 4 show PKC binding following a preincubation with 10 μM peptide rIII (SEQ ID NO:4) and 10 μM peptide rVI (SEQ ID NO:7), respectively. […] The results shown are representative of three independent experiments.

For the next assay, the target named is T1, βPKC (Rattus norvegicus, UniProt P68403).
T1 construct: All the solutions contained 5 nM rat brain PKC; from tissue; host or cells: rat brain
T1 sequence (P68403 whole entry): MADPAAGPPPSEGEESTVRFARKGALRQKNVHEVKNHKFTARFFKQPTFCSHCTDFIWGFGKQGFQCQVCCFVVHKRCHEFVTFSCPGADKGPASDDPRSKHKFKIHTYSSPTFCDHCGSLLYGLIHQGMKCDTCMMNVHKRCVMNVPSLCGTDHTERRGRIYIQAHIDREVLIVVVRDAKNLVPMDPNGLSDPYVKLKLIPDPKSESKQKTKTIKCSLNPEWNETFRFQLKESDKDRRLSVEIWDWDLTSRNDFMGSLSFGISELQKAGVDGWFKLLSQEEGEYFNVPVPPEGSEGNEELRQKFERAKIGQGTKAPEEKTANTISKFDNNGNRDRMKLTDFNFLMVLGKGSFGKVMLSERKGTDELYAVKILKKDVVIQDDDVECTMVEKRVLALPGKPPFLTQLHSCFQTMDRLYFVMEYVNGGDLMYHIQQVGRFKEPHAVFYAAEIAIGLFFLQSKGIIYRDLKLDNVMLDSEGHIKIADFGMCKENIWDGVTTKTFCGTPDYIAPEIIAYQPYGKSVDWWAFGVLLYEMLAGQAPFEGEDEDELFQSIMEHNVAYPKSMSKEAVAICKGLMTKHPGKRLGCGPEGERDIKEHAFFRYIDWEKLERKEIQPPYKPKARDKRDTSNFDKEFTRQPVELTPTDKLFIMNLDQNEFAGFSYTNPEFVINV
Briefly: Sensitivity of βPKC to Arg-C endopeptidase (nicking). The class given is biochemical. The note with it: low activators: 2.5 μg/ml PS and 50 μM CaCl2; peptide 10 μM. The source says: Upon activation of PKC, a pseudosubstrate autoinhibitory sequence at the N-terminus of the molecule dissociates from the catalytic site and becomes sensitive to endopeptidase Arg-C (Orr, et al.). In the absence of PKC activators, exposure of the 80 kDa βPKC to endopeptidase Arg-C has no effect on the enzyme (see FIG. 7, lane 1). In the presence of the PKC activators PS, DG and calcium, however, exposure of βPKC to Arg-C results in a “nicking” of the PKC (i.e. limited proteolysis generating a 78 kDa fragment and several small fragments (see FIG. 7, lane 2)). Continued exposure to Arg-C results in the disappearance of βPKC (Orr, et al.). The present experiment tests whether peptides derived from the WD-40 region of RACK1 alter the sensitivity of βPKC to endopeptidase Arg-C.
The methods used to assay Arg-C sensitivity are a modification of methods described by Orr, et al. Rat brain PKC (˜5 nM) was incubated at room temperature in 500 μl of 20 mM Tris-HCl buffer (pH 7.5) alone or with Arg-C (5 units/ml) in the presence or absence of the indicated peptides (final concentration 10 μM or as indicated), PS, DG, and calcium (as indicated). 50 μl aliquots were removed into 20 μl of sample buffer during the reaction as indicated (samples in all the lanes were incubated for 30 minutes , except lanes 5, and 6, which were incubated for 5 and 15 minutes, respectively). The samples were boiled for 10 minutes at 80° C. and loaded onto 8% SDS-PAGE. βPKC was detected by Western blot analysis using anti-βPKC antibodies as described in Examples 6 and 8.
PKC was incubated for the indicated time alone (lane 1) or in the presence of Arg-C (lanes 2-9), with DG (0.8 μg/ml), PS (50 μg/ml) and CaCl2 (1 mM; lane 2), with PS (50 μg/ml) and CaCl2 (1 mM; lane 3), with PS (2.5 μg/ml) and CaCl2 (50 μM; lane 4); with PS (2.5 μg/ml), CaCl2 (50 μM) and with either peptide rVI (SEQ ID NO:7; 10 μM; lanes 5-7), control peptide (SEQ ID NO:9; lane 8) or with peptide I (SEQ ID NO:1; lane 9).

For assay [2], the system named is PKC. Briefly: PKC autophosphorylation. The class given is biochemical, rat. Particulars: peptide 10 μM; absence of PKC activators. On the procedure: Rat brain PKC (˜10 nM) was incubated with mild agitation in a final volume of 250 μl of overlay buffer, as in Example 1 either with anti-βPKC pseudosubstrate antibodies (1:10 dilution, Life Technologies, Gaithersburg, Md.) or with the indicated peptide (10 μM). Where indicated, PS (50 μg/ml), DG (0.8 μg/ml) and CaCl2 (1 mM) were also added. The amount of autophosphorylation was determined after 2 hours for the reaction with the anti-pseudosubstrate antibodies, or after 15 minutes for the other samples. 50 μl of a buffer comprised of 20 mM Tris-HCl (pH 7.5), 20 mM MgCl2, 20 μM ATP and 5 μci/ml [γ-^32P]ATP. The mixture was incubated for 15 minutes at room temperature and the reaction was stopped by adding 60 μl sample buffer (see Example 9). The samples were then boiled for 10 minutes, loaded onto a 10% SDS-PAGE mini gel and electrophoresed. The gel was fixed with 50% methanol and 10% acetic acid for 1 hour, and the autophosphorylation of PKC was determined by autoradiography.
The results in FIG. 8 show PKC autophosphorylation in the presence of DG, PS, and calcium (lane 1), in the presence of EGTA (lane 2), in the presence of anti-βPKC pseudosubstrate antibodies (diluted 1:10 in 20 mM Tris-HCl; lane 3), in the presence of peptide rVI (SEQ ID NO:7; 10 μM; lane 4), in the presence of peptide I (SEQ ID NO:1; 10 μM; lane 5), or in the presence of control peptide (SEQ ID NO:9; 10 μM; lane 6).

The next assay relates to Xenopus oocytes. Briefly: PKC-mediated Xenopus oocyte maturation (germinal vesicle breakdown, GVBD) after peptide microinjection. The class given is cell-based. Particulars: for plateau % GVBD (fraction of oocytes reaching maturation) following insulin exposure: peptide 50 μM, 50 nl microinjected, 20 h time course. On the procedure:
Exposure to insulin induces maturation in Xenopus oocytes via a PKC-dependent pathway (Smith, et al., 1992). The maturation response may be quantified by monitoring the appearance of a white spot in the animal hemisphere of the oocyte, indicating germinal vesicle breakdown (GVBD) and maturation. To assess the effects of RACK1 WD-40-derived peptides on insulin-induced PKC-mediated maturation, 50 nl of a 20 mM NaCl solution containing the indicated peptides [peptide I (SEQ ID NO:1; ●), peptide rVI (SEQ ID NO:7; ▪), or injection solution (□)] (peptides at 50 μM) were microinjected into Xenopus oocytes. […] One hour following the peptide injections, the oocytes were exposed to a solution containing insulin (8.25 μg/ml) for 2 minutes (t=0). 10-15 oocytes were used for each sample.
The data, representative of three independent experiments, are expressed as the percent of oocytes with GVBD following insulin exposure and are plotted as a function of time in FIG. 5.

For a further assay, the system named is δ and εPKC isozymes. Briefly: PKC isozyme translocation and degradation in cardiac myocytes. In kind it is cell-based, rat. As for the experimental part:
In cardiac myocytes, norepinephrine (NE, 2 μM) causes translocation of δ and εPKC isozymes from the cytosolic to the particulate fraction. […] This peptide-induced translocation was followed by degradation of δ and εPKC isozymes.

Assay [3] relates to PKC. Briefly: Histone type IIIs phosphorylation by PKC. Particulars: absence of PS, DG and calcium; peptide 10 μM. The class given is biochemical. On the procedure:
Histone type IIIs (Sigma Chemical Company, St. Louis, Mo.) was phosphorylated by PKC (˜10 nM) in the absence (lane 1) and presence of peptide rVI (10 μM) (lanes 2 and 3) and in the presence and absence of DG (0.8 μg/ml), PS (50 μg/ml) and CaCl2 (1 mM) (lane 3). The results are expressed as percentage of control that is the amount of Histone phosphorylation by PKC in the presence of DG (0.8 μg/ml), PS (50 μg/ml) and CaCl2 (1 mM). The results are the average ± SEM of two independent experiments. PKC was first incubated with the peptide rVI (10 μM) for 15 minutes in overlay buffer as described above. Histone type IIIs (40 μg/ml) was added in Tris-HCl (20 mM), MgCl2 (20 mM), ATP (20 μM) and ([γ-^32P]ATP (5 μci/ml) with or without PS (50 μg/ml), DG (0.8 μg/ml) and CaCl2 (1 mM). Histone phosphorylation was determined by autoradiography as above.

[4] abbreviates: peptide 50 μM microinjected, insulin 8.25 μg/ml.
Where [5] appears, read: peptide introduced into cardiac myocytes.

Regarding “peptide rI: synthetic peptide based on the corresponding region of RACK1 WD-40 repeat I (VTQIATT)”, in assay [1], the “inhibition of PKC binding to RACK1 (in words)” value (“inhibition of PKC binding” below) is “effective inhibitors”.

For “peptide rVII: synthetic peptide based on the corresponding region of RACK1 WD-40 repeat VII (PQCTSLA)”, the “inhibition of PKC binding” value in assay [1] is “no inhibition”.

As for “control peptide: control peptide (SEQ ID NO:9) (LKGKIL) [reference compound]”, the “nicking of βPKC by Arg-C (78 kDa fragment)” value with βPKC was “did not result in appreciable nicking activity; also recorded: did not occur”. In addition, the “induction of PKC autophosphorylation (in words)” value in the assay with PKC [2] is listed as “No autophosphorylation; also recorded: Neither peptide I nor control peptide induced PKC autophosphorylation”. In addition, in the assay with Xenopus oocytes (setting [4]), the “delay to onset of maturation after exposure to insulin” value was 4 to 5 h and the “time to reach GVBD plateau after insulin exposure” value lay in the range of 10 to 12 h. The “plateau % GVBD (fraction of oocytes reaching maturation) following insulin exposure” value with Xenopus oocytes (insulin 8.25 μg/ml) was 85-90%.

Take “peptide rII: synthetic peptide based on the corresponding region of RACK1 WD-40 repeat II (FVSDVVI)”: the “inhibition of PKC binding” value in assay [1] is “effective inhibitors”.

“peptide rIII: seven amino acid peptide identical to a segment of RACK1 WD-40 repeat III (DVLSVAF)”: the “nicking of βPKC by Arg-C (78 kDa fragment)” value in the assay with βPKC is listed as “appearance of the 78 kDa nicked PKC fragment”. Further, the “NE-induced translocation of δ and εPKC” value with δ and εPKC isozymes (norepinephrine 2 μM) is reported as “further enhanced”. Also, the “degradation of PKC isozymes” value in the assay with δ and εPKC isozymes (setting [5]) was “followed by degradation of these activated isozymes; also recorded: accelerated the degradation of PKC”. Also, the “translocation / distribution of δ and εPKC isozymes in the absence of hormone stimulation” value with δ and εPKC isozymes (setting [5]) is reported as “caused an immediate translocation”. Further, the “inhibition of PKC binding” value in assay [1] was “inhibit the binding of PKC to RACK1; also recorded: somewhat more effective than peptide rVI”. Further, the “induction of PKC-mediated histone phosphorylation” value with PKC [3] is reported as “similarly induced histone phosphorylation”. Besides, the “effect on insulin-induced oocyte maturation (in words)” value in the assay on Xenopus oocytes (at 50 and 500 μM) is reported as “enhances insulin-induced oocyte maturation”; with Xenopus oocytes (peptide microinjected, insulin), “potentiated the effects of insulin on oocyte maturation”. Also, the “plateau % GVBD (fraction of oocytes reaching maturation) following insulin exposure” value in the assay with Xenopus oocytes (insulin 8.25 μg/ml) is listed as roughly 100%.

In the case of “rIV: synthetic peptide based on the corresponding region of RACK1 WD-40 repeat IV (VSCVRFS)”, in assay [1], the “inhibition of PKC binding” value is given as “lesser inhibitory effect”.

For the substance “peptide rV: synthetic peptide based on the corresponding region of RACK1 WD-40 repeat V (GYLNTVT)”, the “inhibition of PKC binding” value in assay [1] is “lesser inhibitory effect”.
